Legend:
Assay type in all cases: in vivo
[1] = test system: Cowpea Aphid (Aphis craccivora); assay: Cowpea aphid (Aphis craccivora) spray test on potted cowpea plants; details: assessed after 72 hours, in comparison with untreated controls
Experimental: The active compound was dissolved at the desired concentration in a mixture of 1:1 (vol:vol) distilled water:acetone. Surfactant (Alkamuls® EL 620) is added at a rate of 0.1% (vol/vol). The test solution was prepared at the day of use.
Potted cowpea plants were colonized with approximately 50-100 aphids of various stages by manually transferring a leaf tissue cut from infested plant 24 hours before application. Plants were sprayed after the pest population has been recorded. Treated plants were maintained on light carts at about 28° C. Percent mortality was assessed after 72 hours.

[2] = test system: Diamond Back Moth (Plutella xylostella); assay: Diamond back moth (Plutella xylostella) cabbage leaf dip test; details: foliar, 3rd instar larvae, 72 hours after treatment, in comparison with untreated controls
Experimental: The active compound was dissolved at the desired concentration in a mixture of 1:1 (vol:vol) distilled water:acetone. Surfactant (Alkamuls® EL 620) is added at a rate of 0.1% (vol/vol).The test solution was prepared at the day of use.
Leaves of cabbage were dipped in test solution and air-dried. Treated leaves were placed in petri dishes lined with moist filter paper and inoculated with ten 3rd instar larvae. Mortality was recorded 72 hours after treatment. Feeding damages were also recorded using a scale of 0-100%.

[3] = test system: Mediterranean Fruitfly (Ceratitis capitata); assay: Mediterranean fruitfly (Ceratitis capitata) microtiter plate insect diet test; details: 120 h, egg and larval mortality after 5 days, in comparison with untreated controls
Experimental: For evaluating control of Mediterranean fruitfly (Ceratitis capitata) the test unit consisted of microtiter plates containing an insect diet and 50-80 C. capitata eggs.
(§1) The compounds were formulated using a solution containing 75% v/v water and 25% v/v DMSO. Different concentrations of formulated compounds were sprayed onto the insect diet at 5 μl, using a custom built micro atomizer, at two replications.
After application, microtiter plates were incubated at about 28±1° C. and about 80±5% relative humidity for 5 days. Egg and larval mortality was then visually assessed.

[4] = test system: Orchid Thrips (Dichromothrips corbetti); assay: Orchid thrips (Dichromothrips corbetti) floral-immersion test; details: adult thrips, 72 hours after treatment, in comparison with untreated controls
Experimental: Dichromothrips corbetti adults used for bioassay were obtained from a colony maintained continuously under laboratory conditions. For testing purposes, the test compound was diluted in a 1:1 mixture of acetone:water (vol:vol), plus 0.01% vol/vol Alkamuls® EL 620 surfactant.
Thrips potency of each compound was evaluated by using a floral-immersion technique. Plastic petri dishes were used as test arenas. All petals of individual, intact orchid flowers were dipped into treatment solution and allowed to dry. Treated flowers were placed into individual petri dishes along with—about 20 adult thrips. The petri dishes were then covered with lids. All test arenas were held under continuous light and a temperature of about 28° C. for duration of the assay. After 3 days, the numbers of live thrips were counted on each flower, and along inner walls of each petri dish. The percent mortality was recorded 72 hours after treatment.

[5] = test system: Southern Armyworm (Spodoptera eridania); assay: Southern armyworm (Spodoptera eridania) spray test on lima bean plants; details: 96 h, larvae, 4 days after treatment, in comparison with untreated controls
Experimental: (§2) The active compounds were formulated in cyclohexanone as a 10,000 ppm solution supplied in tubes. The tubes were inserted into an automated electrostatic sprayer equipped with an atomizing nozzle and they served as stock solutions for which lower dilutions were made in 50% acetone:50% water (v/v). A nonionic surfactant (Kinetic®) was included in the solution at a volume of 0.01% (v/v).
(§3) Lima bean plants (variety Sieva) were grown 2 plants to a pot and selected for treatment at the 1st true leaf stage. Test solutions were sprayed onto the foliage by an automated electrostatic plant sprayer equipped with an atomizing spray nozzle. The plants were dried in the sprayer fume hood and then removed from the sprayer. Each pot was placed into perforated plastic bags with a zip closure. About 10 to 11 armyworm larvae were placed into the bag and the bags zipped closed. Test plants were maintained in a growth room at about 25° C. and about 20-40% relative humidity for 4 days, avoiding direct exposure to fluorescent light (24 hour photoperiod) to prevent trapping of heat inside the bags. Mortality and reduced feeding were assessed 4 days after treatment, compared to untreated control plants.

[6] = test system: Vetch Aphid (Megoura viciae); assay: Vetch aphid (Megoura viciae) broad bean leaf disk microtiter test; details: foliar, 120 h, adult aphids, after 5 days, in comparison with untreated controls
Experimental: For evaluating control of vetch aphid (Megoura viciae) through contact or systemic means the test unit consisted of 24-well-microtiter plates containing broad bean leaf disks.
The compounds were formulated using a solution containing 75% v/v water and 25% v/v DMSO. Different concentrations of formulated compounds were sprayed onto the leaf disks at 2.5 μl, using a custom built micro atomizer, at two replications.
After application, the leaf disks were air-dried and 5-8 adult aphids placed on the leaf disks inside the microtiter plate wells. The aphids were then allowed to suck on the treated leaf disks and incubated at about 23±1° C. and about 50±5% relative humidity for 5 days. Aphid mortality and fecundity was then visually assessed.

[7] = test system: Tobacco Budworm (Heliothis virescens); assay: Tobacco budworm (Heliothis virescens) I spray test on cotton plants; details: 96 h, larvae, 4 days after treatment, in comparison with untreated controls
Experimental: as §2
as §3, with “Cotton” for “Lima bean”, “plants” for “plants (variety Sieva)”, “cotyledon” for “1st true leaf”, “budworm” for “armyworm”

[8] = test system: Boll Weevil (Anthonomus grandis); assay: Boll weevil (Anthonomus grandis) microtiter plate insect diet test; details: 120 h, egg and larval mortality after 5 days, in comparison with untreated controls
Experimental: For evaluating control of boll weevil (Anthonomus grandis) the test unit consisted of 96-well-microtiter plates containing an insect diet and 5-10 A. grandis eggs.
as §1
After application, microtiter plates were incubated at about 25±1° C. and about 75±5% relative humidity for 5 days. Egg and larval mortality was then visually assessed.

[9] = test system: Colorado Potato Beetle (Leptinotarsa decemlineata); assay: Colorado potato beetle (Leptinotarsa decemlineata) spray test on eggplant foliage; details: foliar, 96 h, beetle larvae, 4 days after treatment, in comparison with untreated controls
Experimental: as §2
Eggplants were grown 2 plants to a pot and were selected for treatment at the 1st true leaf stage. Test solutions were sprayed onto the foliage by an automated electrostatic plant sprayer equipped with an atomizing spray nozzle. The plants were dried in the sprayer fume hood and then removed from the sprayer. The treated foliage was then cut and removed from the pot and placed in a Petri dish lined with moistened filter paper. Five beetle larvae were introduced into each Petri dish and the dish was covered by a Petri dish lid. Petri dishes were maintained in a growth room at about 25° C. and about 20-40% relative humidity for 4 days, avoiding direct exposure to fluorescent light (24 hour photoperiod) to prevent trapping of heat inside the dishes. Mortality and reduced feeding were assessed 4 days after treatment, compared to untreated control plants.

Cc1cc(Cl)cc(C(=O)N=S2CCCC2)c1NC(=O)c1ccc(C(F)(F)F)cc1-c1ncccc1Cl [Compound 1-7, 5-chloro-2-[[2-(3-chloro-2-pyridyl)-4-(trifluoromethyl)benzoyl]amino]-3-methyl-N-(thiolan-1-ylidene)benzamide]
≥ 75%: mortality at 300 ppm [1] | mortality at 300 ppm [2] | mortality at 2500 ppm [3] | mortality at 500 ppm [4] | mortality at 300 ppm [5] | mortality at 2500 ppm [6] | mortality at 2500 ppm [7] | mortality at 2500 ppm [8] | mortality at 10 ppm [9]

From patent publication US20140243195A1, “N-Thio-anthranilamide compounds and their use as pesticides” (BASF SE, priority 2011, published 2014)
